Several values for one entry are separate records, joined by “and”; a condition that tells them apart may be missing. Equal values may be shown once.
What was measured:
[1] = test system: Shaker K^+ channels; settings: cited from earlier work
[2] = target: open BK channels; settings: read-out: blocking affinity / Kd(0) for block of open BK channels; cited from earlier work
[3] = test system: BK α subunits coexpressed with construct D20A; test: Effect of pore blockers on β3a-mediated tail currents; type: cell-based, mSlo1 (mouse) with human β3a N-terminus on human β2; settings: 10 μM Ca^2+; TBA 2 or 10 mM; bbTBA 200 and 400 μM

| SMILES | effect on inactivation onset [1] | Kd [2] | effect on β3a-mediated tail currents [3] |
| --- | --- | --- | --- |
| CC[N+](CC)(CC)CC [TEA, tetraethylammonium] | slow inactivation onset |  |  |
| CCCC[N+](CCCC)(CCCC)CCCC [TBA, tetrabutylammonium] |  | 900 µM and ~900 µM | both peak tail current and tail current time constant were reduced |

From article PMC3348258 (Nature, 2012)
